# In article PMC12764431 (Nature immunology, 2025):
# How the values were obtained:
# [1] = tested on: dendritic cells (DCs) pulsed with InsB9–23; experiment: MHC-II; type: cell-based, NOD mice; settings: InsB9–23-pulsed DCs, TNFα or TNFα plus NAC; three independent peptidomes
# [2] = tested on: MIN6 cells and B6 mouse islets; experiment: Granule-based antigen presentation; type: cell-based; settings: MIN6 cells stimulated with TNFα; for S5 T cell responses to crinosome fractions from TNFα-treated MIN6 cells: with or without glutathione or TUDCA, n = 6
# [3] = tested on: InsB9–23(C19S)-specific T cell hybridomas; experiment: Responses of InsB9–23; type: cell-based, NOD mice; settings: C3.g7 cells pulsed with peptides, 0.3 μM; n = 6 hybridomas
# [4] = tested on: MHC-II; settings: cited from earlier work
# [5] = tested on: soluble I-A^g7 molecules; experiment: Biochemical competitive binding assay; set-up: species or system mouse; settings: soluble I-A^g7, Extended Data Fig. 3c,d, n = 2
# [6] = tested on: S5 CD4^+ T cell hybridoma; experiment: Response of the S5 CD4+ T cell hybridoma to synthetic peptides; type: cell-based, NOD mice; settings: serially diluted peptide, IL-2 production
# [7] = tested on: 9B9 CD4^+ T cell hybridoma; experiment: Response of the 9B9 CD4+ T cell hybridoma to synthetic peptides; type: cell-based, NOD mice; settings: serially diluted peptide, IL-2 production
# [8] = tested on: islet and pancreatic lymph node cells; experiment: IFNγ ELISPOT, antigen recall of pooled islet and pancreatic lymph node cells; type: cell-based; settings: cells pooled from islets and pancreatic lymph nodes of 8-week-old female NOD mice, peptide 1 μM; n = 4
# [9] = tested on: MIN6 cells and B6 mouse islets; experiment: β cell death and total granule protein after tunicamycin; type: cell-based; settings: tunicamycin 2 h, followed by extensive washing
compound,measurement,setting,value
"CC(=O)N[C@@H](CS)C(=O)O [NAC, N-acetylcysteine]",InsB9–23(C19S) peptide in the DC I-A^g7 peptidome,[1],reduced
"C[C@H](CCC(=O)NCCS(=O)(=O)O)[C@H]1CC[C@H]2[C@@H]3[C@@H](O)C[C@@H]4C[C@H](O)CC[C@]4(C)[C@H]3CC[C@]12C [TUDCA, tauroursodeoxycholic acid]",S5 T cell responses to crinosome fractions from TNFα-treated MIN6 cells,[2],inhibited
N[C@@H](CCC(=O)N[C@@H](CS)C(=O)NCC(=O)O)C(=O)O [glutathione],S5 T cell responses to crinosome fractions from TNFα-treated MIN6 cells,[2],inhibited
EALYLVSGE [Nested InsB13-21(C19S)],Recognition of register peptides by InsB9–23(C19S)-specific T cell hybridomas,[3],only a few recognizing
GDLQTLALEVARE [CP1d],MHC-II binding relative to the native C-peptide,[4],~ 45 fold
InsB12–20(C19A): surrogate InsB12–20 peptide with C19A,Binding to I-A^g7 compared to native counterparts,[5],similarly reduced binding
SHLVEALALVCGERG [InsB9–23(Y16A)],Response of the S5 T cell hybridoma to peptide,[6],failed to respond at any peptide concentration
same,Response of the 9B9 T cell hybridoma to peptide,[7],did not respond
SHLVEALYLVCGERG [InsB9–23],IFNγ production by ELISPOT during antigen recall,[8],induced IFNγ production
SHLVEALYLVSGERG [InsB9–23(C19S)],Response of the S5 T cell hybridoma to peptide,[6],responded robustly
same,Response of the 9B9 T cell hybridoma to peptide,[7],minimal reactivity
same,IFNγ production by ELISPOT during antigen recall,[8],triggered even higher responses
TNFα,"Native InsB9–23 levels (9B9 T cell responses), TNFα-treated MIN6 cells",[2],did not affect
same,S5 T cell responses to crinosome fractions from TNFα-treated MIN6 cells,[2],significant increase
same,InsB9–23(C19S) peptide in the DC I-A^g7 peptidome,[1],appeared
tunicamycin,β cell death,[9],did not cause β cell death
